The text below walks through data of patent publication US20250051347A1, “BIFUNCTIONAL CHIMERIC HETEROCYCLIC COMPOUND AND USE THEREOF AS ANDROGEN RECEPTOR DEGRADER” (Hinova Pharmaceuticals, Inc., priority 2021, published 2025).

The subject of series [1] is 22RV1 cells.
Series [2] has as its target T1, androgen receptor (AR) splicing variant AR-v7 (Homo sapiens, UniProt P10275).
T1 construct: The degradation activity of compounds on AR-v7 in 22RV1 cells; host or cells: 22RV1 cells
T1 sequence (P10275 1-644 isoform P10275-3): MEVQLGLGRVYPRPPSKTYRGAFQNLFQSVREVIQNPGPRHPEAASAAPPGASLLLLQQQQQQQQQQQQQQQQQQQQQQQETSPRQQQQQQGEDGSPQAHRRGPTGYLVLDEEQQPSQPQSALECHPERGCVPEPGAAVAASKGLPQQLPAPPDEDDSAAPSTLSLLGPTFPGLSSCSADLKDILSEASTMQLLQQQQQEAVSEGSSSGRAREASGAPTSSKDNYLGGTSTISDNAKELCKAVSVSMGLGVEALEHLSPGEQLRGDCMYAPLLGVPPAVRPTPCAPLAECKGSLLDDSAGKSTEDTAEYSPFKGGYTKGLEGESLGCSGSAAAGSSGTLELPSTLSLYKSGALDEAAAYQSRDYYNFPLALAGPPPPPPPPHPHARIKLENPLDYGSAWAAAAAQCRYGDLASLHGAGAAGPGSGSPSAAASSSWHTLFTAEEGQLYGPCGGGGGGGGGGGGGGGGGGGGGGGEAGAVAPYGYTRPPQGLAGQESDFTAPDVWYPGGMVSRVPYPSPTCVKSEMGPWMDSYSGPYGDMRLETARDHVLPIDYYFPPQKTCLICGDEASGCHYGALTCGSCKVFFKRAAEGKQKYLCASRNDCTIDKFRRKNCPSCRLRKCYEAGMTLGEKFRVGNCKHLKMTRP
The experiment in a line: Degradation activity on androgen receptor splicing variant AR-v7 in 22RV1 cells (ELISA). Conditions: AR-v7 degradation in 22RV1 cells, 48 h, class symbols. The format is cell-based.

Series [3] in a line: Pharmacokinetics in mice (plasma exposure after oral administration). It counts as in vivo. To be noted: ICR mice, oral (i.g.) 3 mg/kg; for AUC(0-inf): mouse, read-out: After oral administration of 3 mg/kg, mouse plasma exposure AUCinf.
The mark [4] stands for this setting: Homo sapiens, 22Rv1, 144 h, read-out: 22RV1 IC50 (nM), 22RV1 cells, 6 days culture, CCK-8, OD 450 nm.

Where two headings read alike, the source gives them in different places.

As for `CNC(=O)c1nccc(COc2ccc(C(C)(C)c3ccc(O[C@H]4C[C@@H](Nc5ccc6c(c5)C(=O)N(C5CCC(=O)NC5=O)C6=O)C4)cc3)cc2)n1` (stereo partly drawn) [Example 187, 4-((4-(2-(4-((1s,3s)-3-((2-(2,6-dioxopiperidin-3-yl)-1,3-dioxoisoindolin-5-yl)amino)cyclobutyloxy)phenyl)propan-2-yl)phenoxy)methyl)-N-methylpyrimidin-2-carbonylamine], the half-inhibitory concentration (IC50) in series [1] (setting [4]) was 6 nM. Further, the DC50 in series [2] is less than 10 nM. Moreover, the AUC(0-inf) in series [3] lay in the range of 100 to 1000 ng·h/mL.

In the case of `COc1ncc2c(n1)CN(c1ccc(C(C)(C)c3ccc(OC4CC(Nc5ccc6c(c5)C(=O)N(C5CCC(=O)NC5=O)C6=O)C4)cc3)cc1)CC2` (stereo not drawn) [Example 188], the IC50 in series [1] (setting [4]) was 12 nM. For the same compound, the DC50 in series [2] was less than 10 nM. In series [3], the AUC(0-inf) was 1000 to 5000 ng·h/mL.

Take `CC(C)(c1ccc(O[C@H]2C[C@H](Nc3ccc4c(c3)C(=O)N(C3CCC(=O)NC3=O)C4=O)C2)cc1)c1ccc(N2CCc3cnc(N4CC5(COC5)C4)nc3C2)cc1` (stereo partly drawn) [Example 189]: the IC50 in series [1] (setting [4]) turned out to be 9 nM. This compound also came in with a DC50 in series [2] of less than 10 nM. In addition, in series [3], the AUC(0-inf) is 5000 to 30000 ng·h/mL.

For the compound `CC(C)(c1ccc(O[C@H]2C[C@@H](Nc3ccc4c(c3)C(=O)N(C3CCC(=O)NC3=O)C4=O)C2)cc1)c1ccc(N2CCc3cnc(N4CC5(COC5)C4)nc3C2)cc1` (stereo partly drawn) [Example 190], the IC50 in series [1] (setting [4]) came to 12 nM. The compound also yielded a 50% degradation concentration (DC50) in series [2] of less than 10 nM. Further, in series [3], the AUC(0-inf) was in the range of 5000 to 30000 ng·h/mL.

Consider `CC(C)(c1ccc(OCc2cnc(N3CC4(COC4)C3)nc2)cc1)c1ccc(O[C@H]2C[C@@H](Nc3ccc4c(c3)C(=O)N(C3CCC(=O)NC3=O)C4=O)C2)cc1` (stereo partly drawn) [Example 193], for which the 50% inhibitory concentration (IC50) in series [1] (setting [4]) was found to be 36 nM. In series [2], this compound gave a DC50 of 11 to 100 nM. Besides, in series [3], the AUC(0-inf) is 1000 to 5000 ng·h/mL.

Take `CC(C)(c1ccc(O[C@H]2C[C@H](Nc3ccc4c(c3)C(=O)N(C3CCC(=O)NC3=O)C4=O)C2)cc1)c1ccc(N2CCc3nc(N4CC5(COC5)C4)ncc3C2)cc1` (stereo partly drawn) [Example 195]: in series [1] (setting [4]), the half-inhibitory concentration (IC50) is 15 nM. Moreover, the 50% degradation concentration (DC50) in series [2] was less than 10 nM. Also, in series [3], the AUC(0-inf) fell in the range of 1000 to 5000 ng·h/mL.

On to `CC(C)(c1ccc(OCc2ccnc(N3CC4(CCO4)C3)n2)cc1)c1ccc(O[C@H]2C[C@@H](Nc3ccc4c(c3)C(=O)N(C3CCC(=O)NC3=O)C4=O)C2)cc1` (stereo partly drawn) [Example 196], for which the IC50 in series [1] (setting [4]) amounted to 10 nM. This compound registered a DC50 in series [2] of less than 10 nM. Besides, the AUC(0-inf) in series [3] lay in the range of 1000 to 5000 ng·h/mL.

In the case of `CC(C)(c1ccc(Oc2ccc(-n3nccn3)nc2)cc1)c1ccc(O[C@H]2C[C@H](Nc3ccc4c(c3)C(=O)N(C3CCC(=O)NC3=O)C4=O)C2)cc1` (stereo partly drawn) [Example 206, 5-((1r,3r)-3-(4-(2-(4-((6-(2H-1,2,3-triazol-2-yl)pyridin-3-yl)oxy)phenyl)propan-2-ylphenoxy)cyclobutyl)amino)-2-(2,6-dioxopiperidin-3-yl)isoindolin-1,3-dione], the IC50 in series [1] (setting [4]) came to 10 nM. Further, the DC50 in series [2] is less than 10 nM. Further, the AUC(0-inf) in series [3] was 5000 to 30000 ng·h/mL.

For `Cc1nc(-c2ccc(Oc3ccc(C(C)(C)c4ccc(O[C@H]5C[C@H](Nc6ccc7c(c6)C(=O)N(C6CCC(=O)NC6=O)C7=O)C5)cc4)cc3)cn2)no1` (stereo partly drawn) [Example 209], in series [1] (read-out: 22RV1 IC50, 22RV1 cells, 6 days culture, CCK-8, OD 450 nm), the half-inhibitory concentration (IC50) came to 5 nM. The compound further yielded a 50% degradation concentration (DC50) in series [2] of less than 10 nM. The “After oral administration of 3 mg/kg, mouse plasma exposure AUCinf (μg*h/mL)” value in series [3] is listed as “A (30-5 μg*h/mL)”.

Take `C=CC(c1ccc(Oc2cnc(-c3noc(C)n3)nc2)cc1)c1ccc(O[C@H]2C[C@H](Nc3ccc4c(c3)C(=O)N(C3CCC(=O)NC3=O)C4=O)C2)cc1` (stereo partly drawn) [Example 210]: the IC50 in series [1] (setting [4]) amounted to 7 nM. The compound also yielded a DC50 in series [2] of less than 10 nM. For the same compound, the AUC(0-inf) in series [3] lay within 5000 to 30000 ng·h/mL.

Regarding `Cc1nc(-c2ncc(Oc3ccc(C4(c5ccc(O[C@H]6C[C@H](Nc7ccc8c(c7)C(=O)N(C7CCC(=O)NC7=O)C8=O)C6)cc5)CC4)cc3)cn2)no1` (stereo partly drawn) [Example 212], the IC50 in series [1] (setting [4]) stood at 14 nM. In series [2], this compound had a DC50 of less than 10 nM. Moreover, the AUC(0-inf) in series [3] lay within 5000 to 30000 ng·h/mL.

`CC(O)c1ncc(Oc2ccc(C(C)(C)c3ccc(O[C@H]4C[C@H](Nc5ccc6c(c5)C(=O)N(C5CCC(=O)NC5=O)C6=O)C4)cn3)cc2)cn1` (stereo partly drawn) [Example 223]: the IC50 in series [1] (setting [4]) is 0.5 nM. The compound also yielded a DC50 in series [2] of less than 10 nM. Also, the AUC(0-inf) in series [3] was 1000 to 5000 ng·h/mL.

Turning to `CC(C)(c1ccc(OCc2ccnc(-n3nccn3)n2)cc1)c1ccc(O[C@H]2C[C@H](Nc3ccc4c(c3)C(=O)N(C3CCC(=O)NC3=O)C4=O)C2)cc1` (stereo partly drawn) [Example 231], the IC50 in series [1] (setting [4]) was 8.6 nM. In series [2], this compound registered a DC50 of 11 to 100 nM. Moreover, the AUC(0-inf) in series [3] is 5000 to 30000 ng·h/mL.

For the compound `CN1CCC(Nc2nccc(COc3ccc(C(C)(C)c4ccc(O[C@H]5C[C@H](Nc6ccc7c(c6)C(=O)N(C6CCC(=O)NC6=O)C7=O)C5)cc4)cc3)n2)CC1` (stereo partly drawn) [Example 232], the IC50 in series [1] (setting [4]) was determined as 8 nM. For the same compound, in series [2], the DC50 was less than 10 nM. In addition, the AUC(0-inf) in series [3] fell in the range of 100 to 1000 ng·h/mL.

With `CC(C)(c1ccc(OCc2ccnc(NC3CCN(CCCCO)CC3)n2)cc1)c1ccc(O[C@H]2C[C@H](Nc3ccc4c(c3)C(=O)N(C3CCC(=O)NC3=O)C4=O)C2)cc1` (stereo partly drawn) [Example 239], the half-maximal inhibitory concentration (IC50) in series [1] (setting [4]) was determined as 3 nM. In series [2], the 50% degradation concentration (DC50) is less than 10 nM. The AUC(0-inf) in series [3] was in the range of 100 to 1000 ng·h/mL.

In the case of `CC(C)(c1ccc(Oc2ccnc(N3CC4(COC4)C3)n2)cc1)c1ccc(OC2CC(Nc3ccc4c(c3)C(=O)N(C3CCC(=O)NC3=O)C4=O)C2)cc1` (stereo not drawn) [Example 240, 5-((3-(4-(2-(4-((2-(2-oxa-6-azaspiro[3.3]heptan-6-yl)pyrimidin-4-yl)oxy)phenyl)propan-2-yl)phenoxy)cyclobutyl)amino)-2-(2,6-dioxopiperidin-3-yl)isoindolin-1,3-dione], the half-maximal inhibitory concentration (IC50) in series [1] (setting [4]) came to 12 nM. In series [2], the half-maximal degradation concentration (DC50) was less than 10 nM. Moreover, the AUC(0-inf) in series [3] is 1000 to 5000 ng·h/mL.

`CC(C)(c1ccc(Oc2cnc(N3CC4(COC4)C3)nc2)cc1)c1ccc(O[C@H]2C[C@H](Nc3ccc4c(c3)C(=O)N(C3CCC(=O)NC3=O)C4=O)C2)cc1` (stereo partly drawn) [Example 248]: the 50% inhibitory concentration (IC50) in series [1] (setting [4]) worked out at 23 nM. In series [2], this compound displayed a 50% degradation concentration (DC50) of less than 10 nM. Further, the AUC(0-inf) in series [3] fell in the range of 1000 to 5000 ng·h/mL.

For the compound `Cc1noc(-c2nccc(COc3ccc(C(C)(C)c4ccc(O[C@H]5C[C@@H](Nc6ccc7c(c6)C(=O)N(C6CCC(=O)NC6=O)C7=O)C5)cc4)cc3)n2)n1` (stereo partly drawn) [Example 251], the IC50 in series [1] (setting [4]) was 6 nM. Further, the DC50 in series [2] is less than 10 nM. In addition, the AUC(0-inf) in series [3] lay within 1000 to 5000 ng·h/mL.

For the compound `Cc1noc(-c2ncc(Oc3ccc(C(C)(C)c4ccc(O[C@H]5C[C@H](Nc6ccc7c(c6)C(=O)N(C6CCC(=O)NC6=O)C7=O)C5)cc4)cc3)cn2)n1` (stereo partly drawn) [Example 254], the IC50 in series [1] (setting [4]) worked out at 6 nM. The compound also came in with a 50% degradation concentration (DC50) in series [2] of less than 10 nM. The AUC(0-inf) in series [3] was in the range of 5000 to 30000 ng·h/mL.

As for `C=CC(c1ccc(Oc2ccc(-c3noc(C)n3)nn2)cc1)c1ccc(O[C@H]2C[C@H](Nc3ccc4c(c3)C(=O)N(C3CCC(=O)NC3=O)C4=O)C2)cc1` (stereo partly drawn) [Example 259], the half-inhibitory concentration (IC50) in series [1] (setting [4]) came to 7 nM. Also, the DC50 in series [2] was less than 10 nM. For the same compound, the AUC(0-inf) in series [3] fell in the range of 5000 to 30000 ng·h/mL.

For `CC1(N)CN(c2nccc(COc3ccc(C(C)(C)c4ccc(O[C@H]5C[C@@H](Nc6ccc7c(c6)C(=O)N(C6CCC(=O)NC6=O)C7=O)C5)cc4)cc3)n2)C1` (stereo partly drawn) [Example 268], the IC50 in series [1] (setting [4]) came to 9 nM. The DC50 in series [2] was less than 10 nM. The AUC(0-inf) in series [3] is 1000 to 5000 ng·h/mL.

For the compound `CC1(N)CN(c2nccc(COc3ccc(C(C)(C)c4ccc(O[C@H]5C[C@H](Nc6ccc7c(c6)C(=O)N(C6CCC(=O)NC6=O)C7=O)C5)cc4)cc3)n2)C1` (stereo partly drawn) [Example 275], the IC50 in series [1] (setting [4]) came out at 4 nM. Besides, the DC50 in series [2] was less than 10 nM. The AUC(0-inf) in series [3] was in the range of 1000 to 5000 ng·h/mL.
